Where only a bound is given, the exact number is not on record here.

Format in all cases: cell-based
Experiment [1] concerns HIV-1 mutant Cys188RT in TZM-bl cells. As to the kind of experiment: Anti-HIV assay on TZM-bl cells, Cys188RT mutant. To be noted: TZM-bl, mutant Cys188RT; read-out: EC50 Cys188RT TZM-bl. The source says:
(§1) In order to introduce mutation(s) at the level of the pol gene coding for the RT in the pNL4-3 plasmid containing the complete viral genome (Adachi et al., 1986. J. Virol., Vol. 59 p 284-291) we used the “Quick change mutagenesis kit” (Stratagene). The following mutations were separately introduced in pNL4-3: L100I, K103N, V108I, Y181C, Y188C, and the double mutations K103N/V108I. These mutations were chosen because of the resistance that they confer to existing NNRTI. The production procedure of the mutant viral stocks is identical to the one described above.
(§2) Anti-HIV activity and cytotoxicity of the compounds were tested on the TZM-b1 cell line. The TZM-b1 cell line (Wei et al. 2002. Antimicrob. Agents Chemother. Vol. 46, p 1896-1905) was received from the NIH AIDS Research and Reference Reagent Program. These cells were cultured in complete DMEM medium supplemented with 10% fetal bovine serum (FBS), and 1% Penicillin/Streptomycin. Exponentially growing cells were trypsinized, centrifuged and split twice weekly at 5 10^4 cells/ml.
(§3) The anti-HIV assay with TZM-b1 cells is essentially the same as described above with P4 cells. The main difference between the two cell lines is that the TZM-b1 cells express at their surface both the CD4 and CCR5 proteins, acting as receptor and co-receptor for HIV entry, respectively (Wei et al. 2002. Antimicrob. Agents Chemother. Vol. 46, p 1896-1905). This feature makes the cells very sensitive to infection by the virus. The TMZ-b1 cells were infected with equal amount of cell-free virus, corresponding to 10 ng of HIV p24 antigen. This amount is ten times lower than the amount used to infect the P4 cells.

The subject of experiment [2] is HIV-1 mutant Cys181RT in TZM-bl cells. In words: Anti-HIV assay on TZM-bl cells, Cys181RT mutant. The conditions noted are these: TZM-bl, mutant Cys181RT; read-out: EC50 Cys181RT TZM-bl.
Description: as §1, §2, §3

The test system of experiment [3] is HIV-1 with WT (wild type) RT in TZM-bl cells. As to the kind of experiment: Anti-HIV assay on TZM-bl cell line, WT RT. The protocol:
Wurzburg Jurkat T cells (subclone JR) were transfected with 10 μg of the circularly permuted infectious molecular clone HIVNL4-3 (Adachi et al., 1986. J. Virol, 59 (2), p 284-291). Two days later, co-cultivation with SupT1 cells (a human T-cell lymphoma cell line) was initiated to facilitate rapid production of progeny virions. Production of virus was measured by using the Innotest HIV Antigen mAb p24 kit (Innogenetics). At the peak of production cultures were harvested and filtered. The virus stocks were stored at −80° C. until used.
as §2, §3

Experiment [4] relates to HIV-1 mutant Asn103/Ile108RT in TZM-bl cells. In words: Anti-HIV assay on TZM-bl cells, Asn103/Ile108RT double mutant. To be noted: TZM-bl, double mutant Asn103/Ile108RT; read-out: EC50 Asn103/Ile108RT TZM-bl.
Description: as §1, §2, §3

Take `CCc1c(C)[nH]c(=O)c(CC)c1OC1CC(C)CC(C)C1` (stereo not shown) [Z167]: the EC50 in experiment [1] is < 1 nM; in experiment [2], 7 nM; in experiment [3] it was < 1 nM; in experiment [4] it was 129 nM.

These data come from patent publication US20070275953A1 (priority 2003, published 2007).
